Laboratory results: ChEMBL document CHEMBL5029160, “An Activity-Based Probe for Cathepsin K Imaging with Excellent Potency and Selectivity” (J Med Chem, 2021)
Activity calls are given as the source filed them. No cut-off for these calls is given here.

How the values were obtained:
[1] = target: Cathepsin S (Homo sapiens) (UniProt P25774); assay: Inhibition of human cathepsin S assessed as ratio of Kinact/Ki using Z-Phe-Val-Arg-pNA as substrate incubated for 60 mins by fluorometric assay
[2] = target: Procathepsin L (Homo sapiens) (UniProt P07711); assay: Inhibition of human cathepsin L assessed as residual activity using Z-Phe-Arg-pNA as substrate incubated for 60 mins by fluorometric assay; design: concentration or dose not given beside the values
Chain of Procathepsin L (Homo sapiens) (P07711 114-333 limits assumed): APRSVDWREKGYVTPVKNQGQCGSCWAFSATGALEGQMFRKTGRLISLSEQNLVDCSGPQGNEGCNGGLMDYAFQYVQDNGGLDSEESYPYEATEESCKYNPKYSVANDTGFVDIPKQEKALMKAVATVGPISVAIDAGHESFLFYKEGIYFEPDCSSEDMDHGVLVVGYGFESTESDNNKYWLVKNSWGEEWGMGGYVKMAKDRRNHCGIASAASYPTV

[3] = target: T1, Cathepsin K (Homo sapiens) (UniProt P43235); assay: Inhibition of human cathepsin K assessed as ratio of Kinact/Ki using Z-Phe-Arg-pNA as substrate incubated for 60 mins by fluorometric assay
T1 sequence (whole entry): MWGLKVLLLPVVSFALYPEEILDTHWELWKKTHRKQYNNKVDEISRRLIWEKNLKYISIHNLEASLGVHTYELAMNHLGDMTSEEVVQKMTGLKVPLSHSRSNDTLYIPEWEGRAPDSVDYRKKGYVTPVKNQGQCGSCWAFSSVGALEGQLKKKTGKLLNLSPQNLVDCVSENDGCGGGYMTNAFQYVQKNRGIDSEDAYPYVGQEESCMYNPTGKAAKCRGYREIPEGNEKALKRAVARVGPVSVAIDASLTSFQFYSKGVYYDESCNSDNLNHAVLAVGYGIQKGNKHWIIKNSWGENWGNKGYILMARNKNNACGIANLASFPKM

[4] = target: Cathepsin B (Homo sapiens) (UniProt P07858); assay: Inhibition of human cathepsin B assessed as residual activity using Z-Arg-Arg-pNA as substrate incubated for 60 mins by fluorometric assay; design: concentration or dose not given beside the values
[5] = target: T1, Cathepsin K (Homo sapiens); assay: Inhibition of recombinant human Cathepsin K at 5 uM using Z-Phe-Arg-pNA as substrate incubated for 1 hr in presence of HEK293 cell lysate by SDS-PAGE; assay type: subcellular
[6] = target: T1, Cathepsin K (Homo sapiens); assay: Binding affinity to Cathepsin K in human U2OS cells at 1 uM measured after 24 hrs by SDS-PAGE; assay type: cell-based
[7] = target: T1, Cathepsin K (Homo sapiens); assay: Binding affinity to recombinant human Cathepsin K at 5 uM pretreated with E64/K11777 pan-cathepsin inhibitor s for 15 mins followed by compound addition and measured after 1 hr by SDS-PAGE; settings: time 75.0 min
[8] = target: T1, Cathepsin K (Homo sapiens); assay: Binding affinity to Cathepsin K in human U2OS cells at 1 uM measured after 4 hrs by SDS-PAGE; assay type: cell-based
[9] = target: T1, Cathepsin K (Homo sapiens); assay: Binding affinity to Cathepsin K in human U2OS cells at 1 uM pretreated with E-64d for 1 hr followed by compound addition and measured after 24 hrs by SDS-PAGE; assay type: cell-based
[10] = target: T1, Cathepsin K (Homo sapiens); assay: Binding affinity to Cathepsin K in human U2OS cells at 1 uM measured after 16 hrs by SDS-PAGE; assay type: cell-based
[11] = Drug uptake in human U2OS cells […] at 1 uM after 16 hrs by LysoTracker staining based fluorescence microscopy; assay type: ADME, subcellular
[12] = target: Procathepsin L (Homo sapiens) (UniProt P07711); assay: Inhibition of human cathepsin L assessed as ratio of Kinact/Ki using Z-Phe-Arg-pNA as substrate incubated for 60 mins by fluorometric assay
[13] = target: Cathepsin B (Homo sapiens) (UniProt P07858); assay: Inhibition of human cathepsin B assessed as ratio of Kinact/Ki using Z-Arg-Arg-pNA as substrate incubated for 60 mins by fluorometric assay
[14] = target: Cathepsin S (Homo sapiens) (UniProt P25774); assay: Inhibition of human cathepsin S assessed as residual activity using Z-Phe-Val-Arg-pNA as substrate incubated for 60 mins by fluorometric assay

Chain of Cathepsin S (Homo sapiens) (P25774 115-331 limits assumed): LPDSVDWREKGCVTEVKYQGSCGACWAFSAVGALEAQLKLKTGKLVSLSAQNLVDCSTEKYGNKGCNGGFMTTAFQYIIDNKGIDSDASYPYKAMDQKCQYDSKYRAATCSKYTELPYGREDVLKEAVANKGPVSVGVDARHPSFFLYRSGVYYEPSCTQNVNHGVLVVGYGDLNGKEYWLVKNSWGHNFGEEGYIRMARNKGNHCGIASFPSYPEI

| Ratio [1] | Activity [2] | Ratio [3] | Activity [4] | inhibition [5] | Activity [6] | Activity [7] | Activity [8] | Activity [9] | Activity [10] | Drug uptake [11] | Ratio [12] | Ratio [13] | Activity [14] | Compound |
| --- | --- | --- | --- | --- | --- | --- | --- | --- | --- | --- | --- | --- | --- | --- |
| 291 M⁻¹ s⁻¹ | 83% | 10600 M⁻¹ s⁻¹ | 91% | – | – | – | – | – | – | – | – | – | – | CC(C)C[C@H](NC(=O)OC(C)(C)C)C(=O)NC/C=C/C(=O)N(Cc1ccccc1)Cc1ccccc1 |
| 556 M⁻¹ s⁻¹ | 91% | 17900 M⁻¹ s⁻¹ | 96% | – | – | – | – | – | – | – | – | – | – | CCCC[C@H](NC(=O)CCCC[N+]1=C(/C=C/C=C/C=C2/N(C)c3ccccc3C2(C)C)C(C)(C)c2ccccc21)C(=O)N[C@@H](CC(C)C)C(=O)NC/C=C/C(=O)N(Cc1ccccc1)Cc1ccccc1 |
| 505 M⁻¹ s⁻¹ | 89% | 35300 M⁻¹ s⁻¹ | 96% | Active | Active | inactive | Active | inactive | Active | Active | – | – | – | CC(C)C[C@H](NC(=O)CCCC[N+]1=C(/C=C/C=C/C=C2/N(C)c3ccccc3C2(C)C)C(C)(C)c2ccccc21)C(=O)NC/C=C/C(=O)N(Cc1ccccc1)Cc1ccccc1.[Cl-] |
| – | 89% | 9550 M⁻¹ s⁻¹ | 96% | – | – | – | – | – | – | – | 2820 M⁻¹ s⁻¹ | 365 M⁻¹ s⁻¹ | 80% | CC(C)C[C@H](NC(=O)c1cc2cc3c4c(c2oc1=O)CCCN4CCC3)C(=O)NC/C=C/C(=O)N(Cc1ccccc1)Cc1ccccc1 |
| 485 M⁻¹ s⁻¹ | 76% | 6440 M⁻¹ s⁻¹ | 91% | – | – | – | – | – | – | – | – | – | – | CCCC[C@H](NC(=O)OC(C)(C)C)C(=O)N[C@@H](CC(C)C)C(=O)NC/C=C/C(=O)N(Cc1ccccc1)Cc1ccccc1 |
| 1510 M⁻¹ s⁻¹ | – | 84200 M⁻¹ s⁻¹ | – | – | – | – | – | – | – | – | – | – | – | CC(C)C[C@H](NC(=O)c1ccc(-c2cc3cc4c5c(c3oc2=O)CCCN5CCC4)cc1)C(=O)NC/C=C/C(=O)N(Cc1ccccc1)Cc1ccccc1 |
